Experimental data published in patent publication US8883745B2, “C—glycolipids with enhanced Th-1 profile” (New York University, priority 2006, dated 2014).

How the values were obtained:
Assay type in all cases: in vivo
[1] = test system: IFN-γ; experiment: IFN-γ levels in sera upon i.v. glycolipid administration to BALB/c mice (ELISA); parameters: IFN-γ levels, test 1 / IFN-γ levels, test 2 / IFN-γ levels, average / IFN-γ levels, Total: unit not given here; details: BALB/c
Protocol: (§1) Five- to six-week-old female C57BL/6 mice and BALB/c mice were purchased from Taconic. Each glycolipid was stored at 1 mg/ml in 100% DMSO. Mice were injected intravenously with 1 μg of each glyocolipid diluted in 200 μL sterile phosphate buffered saline (PBS). At indicated time points, sera were collected from each animal, and concentrations of IFN-γ, IL-4, and IL-12 in the sera were evaluated by enzyme-linked immunosorbent assay (ELISA). Serum concentrations of IFN-γ, IL-4, and IL-12 were evaluated using an ELISA kit (eBioscience, San Diego, Calif.). Briefly, 96 well flat-bottom ELISA plates (NUNC) were coated with capture antibody according to the manufacture's recommendation and incubated overnight at 4° C. The plates were washed with PBS+0.05% Tween 20 (PBS-T), then incubated with manufacturer provided blocking solution for 1 hr at room temperature to block non-specific binding sites. After washing with PBS-T, sera diluted 1:10 was added to the wells and incubated for 2 hrs at room temperature. Plates were then incubated at room temperature for 1 hr with biotintylated detection antibody, washed, incubated with avidin conjugated to horse radish peroxidase (HRP) for 30 min at room temperature, washed, and finally incubated with tetramethylbenzidine substrate solution in the dark for 10 minutes at room temperature. The antibodies, avidin-HRP, and substrate solution were all diluted according to the manufacture's recommendation. Reactions were stopped with 2.0N sulfuric acid and the cytokine concentration in each well was determined by comparing the absorbance at 450 nm in each well to known standards. The levels of Th1- and Th2-type cytokines were determined in two different genetic backgrounds, i.e., in C57BL/6 mice and BALB/c mice. The following compounds were administered: A=compound (A-1 trans-conformer), B=compound (A-2), C=compound (A-3), D=compound (A-4), E=compound (A-5), Z=control (PBS alone), CRONY=α-C-GalCer, KRN=α-GalCer, GCK109 (A-1 trans-conformer), GCK151 (A-1 cis-conformer), GCK152 (A-7). The levels of cytokines were measured at 0, 2, 6, 12, 24, 48, and 72 hours after the compound administration. The levels of Th1-type cytokines IFN-γ and IL-12 are summarized in FIGS. 2A-C and 3A-C, respectively. Table 7 provides IFN-γ/IL-4 and IL-12/IL-4 ratios for various compounds, which can be used as indicators of their ability to selectively stimulate Th1-type immune responses.

[2] = test system: IL-12; experiment: IL-12 levels in sera upon i.v. glycolipid administration to C57BL/6 mice (ELISA); parameters: IL-12 levels, test 1 / IL-12 levels, test 2 / IL-12 levels, average / IL-12 levels, Total: unit not given here
Protocol: as §1

[3] = test system: IL-4; experiment: IL-4 levels in sera upon i.v. glycolipid administration to C57BL/6 mice (ELISA); parameters: unit not given here
Protocol: as §1

[4] = test system: IFN-γ; experiment: IFN-γ levels in sera upon i.v. glycolipid administration to C57BL/6 mice (ELISA); parameters: IFN-γ levels, test 1 / IFN-γ levels, test 2 / IFN-γ levels, average / IFN-γ levels, Total / IFN-γ (B6): unit not given here
Protocol: as §1

[5] = C57BL/6, ratio calculated from Tables 1-6
[6] = C57BL/6, serum, total over hours 0-72

CCCCCCCCCCCCCCCCC/C=C/CCCCCCCCC(=O)N[C@@H](CC[C@H]1O[C@H](CO)[C@H](O)[C@H](O)[C@H]1O)[C@H](O)[C@H](O)CCCCCCCCCCCCCC [A-3]
IFN-γ/IL-4 (BALB/c) ([1]; ratio calculated from Tables 1-6): 40
IFN-γ levels, average ([1]; serum, hour 0): 27
IFN-γ levels, test 1 ([1]; serum, hour 0): 27
IFN-γ levels, test 2 ([1]; serum, hour 0): 27
IFN-γ levels, average ([1]; serum, hour 2): 163
IFN-γ levels, test 1 ([1]; serum, hour 2): 137
IFN-γ levels, test 2 ([1]; serum, hour 2): 189
IFN-γ levels, average ([1]; serum, hour 6): 1172
IFN-γ levels, test 1 ([1]; serum, hour 6): 1072
IFN-γ levels, test 2 ([1]; serum, hour 6): 1272
IFN-γ levels, average ([1]; serum, hour 12): 3938.5
IFN-γ levels, test 1 ([1]; serum, hour 12): 3891
IFN-γ levels, test 2 ([1]; serum, hour 12): 3986
IFN-γ levels, average ([1]; serum, hour 24): 15700
IFN-γ levels, test 1 ([1]; serum, hour 24): 14100
IFN-γ levels, test 2 ([1]; serum, hour 24): 17300
IFN-γ levels, average ([1]; serum, hour 48): 224.5
IFN-γ levels, test 1 ([1]; serum, hour 48): 231
IFN-γ levels, test 2 ([1]; serum, hour 48): 218
IFN-γ levels, average ([1]; serum, hour 72): 61
IFN-γ levels, test 1 ([1]; serum, hour 72): 62
IFN-γ levels, test 2 ([1]; serum, hour 72): 60
IFN-γ levels, Total ([1]; serum, total over hours 0-72): 21287
IL-12/IL-4 (B6) [2, 5]: 1.5
IL-12 levels, average ([2]; C57BL/6, serum, hour 0): 5
IL-12 levels, test 1 ([2]; C57BL/6, serum, hour 0): 5
IL-12 levels, test 2 ([2]; C57BL/6, serum, hour 0): 5
IL-12 levels, average ([2]; C57BL/6, serum, hour 2): 75
IL-12 levels, test 1 ([2]; C57BL/6, serum, hour 2): 79
IL-12 levels, test 2 ([2]; C57BL/6, serum, hour 2): 71
IL-12 levels, average ([2]; C57BL/6, serum, hour 6): 442
IL-12 levels, test 1 ([2]; C57BL/6, serum, hour 6): 451
IL-12 levels, test 2 ([2]; C57BL/6, serum, hour 6): 433
IL-12 levels, average ([2]; C57BL/6, serum, hour 12): 608
IL-12 levels, test 1 ([2]; C57BL/6, serum, hour 12): 449
IL-12 levels, test 2 ([2]; C57BL/6, serum, hour 12): 767
IL-12 levels, average ([2]; C57BL/6, serum, hour 24): 89.5
IL-12 levels, test 1 ([2]; C57BL/6, serum, hour 24): 77
IL-12 levels, test 2 ([2]; C57BL/6, serum, hour 24): 102
IL-12 levels, average ([2]; C57BL/6, serum, hour 48): 99
IL-12 levels, test 1 ([2]; C57BL/6, serum, hour 48): 67
IL-12 levels, test 2 ([2]; C57BL/6, serum, hour 48): 131
IL-12 levels, average ([2]; C57BL/6, serum, hour 72): 80.5
IL-12 levels, test 1 ([2]; C57BL/6, serum, hour 72): 53
IL-12 levels, test 2 ([2]; C57BL/6, serum, hour 72): 108
IL-12 levels, Total [2, 6]: 1400
IL-4 level, average ([3]; hour 0): 46
IL-4 level, test 1 ([3]; hour 0): 46
IL-4 level, test 2 ([3]; hour 0): 46
IL-4 level, average ([3]; hour 2): 576
IL-4 level, test 1 ([3]; hour 2): 398
IL-4 level, test 2 ([3]; hour 2): 754
IL-4 level, average ([3]; hour 6): 72.5
IL-4 level, test 1 ([3]; hour 6): 59
IL-4 level, test 2 ([3]; hour 6): 86
IL-4 level, average ([3]; hour 12): 49
IL-4 level, test 1 ([3]; hour 12): 43
IL-4 level, test 2 ([3]; hour 12): 55
IL-4 level, average ([3]; hour 24): 57.5
IL-4 level, test 1 ([3]; hour 24): 49
IL-4 level, test 2 ([3]; hour 24): 66
IL-4 level, average ([3]; hour 48): 54.5
IL-4 level, test 1 ([3]; hour 48): 54
IL-4 level, test 2 ([3]; hour 48): 55
IL-4 level, average ([3]; hour 72): 58
IL-4 level, test 1 ([3]; hour 72): 54
IL-4 level, test 2 ([3]; hour 72): 62
IL-4 level, Total ([3]; total over hours 0-72): 915
IFN-γ/IL-4 (B6) [4, 5]: 14
IFN-γ levels, average ([4]; C57BL/6, serum, hour 0): 31
IFN-γ levels, test 1 ([4]; C57BL/6, serum, hour 0): 31
IFN-γ levels, test 2 ([4]; C57BL/6, serum, hour 0): 31
IFN-γ levels, average ([4]; C57BL/6, serum, hour 2): 213
IFN-γ levels, test 1 ([4]; C57BL/6, serum, hour 2): 185
IFN-γ levels, test 2 ([4]; C57BL/6, serum, hour 2): 241
IFN-γ levels, average ([4]; C57BL/6, serum, hour 6): 606
IFN-γ levels, test 1 ([4]; C57BL/6, serum, hour 6): 542
IFN-γ levels, test 2 ([4]; C57BL/6, serum, hour 6): 670
IFN-γ levels, average ([4]; C57BL/6, serum, hour 12): 2440.5
IFN-γ levels, test 1 ([4]; C57BL/6, serum, hour 12): 2665
IFN-γ levels, test 2 ([4]; C57BL/6, serum, hour 12): 2216
IFN-γ levels, average ([4]; C57BL/6, serum, hour 24): 9036
IFN-γ levels, test 1 ([4]; C57BL/6, serum, hour 24): 9837
IFN-γ levels, test 2 ([4]; C57BL/6, serum, hour 24): 8235
IFN-γ levels, average ([4]; C57BL/6, serum, hour 48): 344
IFN-γ levels, test 1 ([4]; C57BL/6, serum, hour 48): 382
IFN-γ levels, test 2 ([4]; C57BL/6, serum, hour 48): 306
IFN-γ levels, average ([4]; C57BL/6, serum, hour 72): 79.5
IFN-γ levels, test 1 ([4]; C57BL/6, serum, hour 72): 75
IFN-γ levels, test 2 ([4]; C57BL/6, serum, hour 72): 84
IFN-γ levels, Total [4, 6]: 12751
